The subject of series [1] is weeds. As to the kind of experiment: Ex18 PRE greenhouse. It is filed as in vivo. Conditions: weed and rate in the words. The source says: (§1) Additional treatments included application of metazachlor (Butisan®, 43.1%) at 750 g ai/ha, napropamide (Devrinol DF®, 50%) at 1260 g ai/ha, and dimethachlor (Teridox®, 48%) at 1000 g ai/ha. […] Treatments were applied just after the seeding of annual bluegrass, cheat, wild oat, quackgrass, field violet, blackgrass, littleseed canarygrass, silky windgrass, yellow foxtail, and goosegrass. […] Flats were watered and fertilized routinely after treatment application. Each treatment was replicated three times.

A further series has as its system Cheat. The series can be described thus: Ex18 PRE 2,4-DC + clomazone, % control 28 DAT, Colby. It is filed as in vivo, Bromus secalinus.
Excerpt: as §1

The test system of the next series is Wild buckwheat. As to the kind of experiment: Ex11 PRE 2,4-DC + clomazone, % control 28 DAT, Colby. Format: in vivo, Polygonum convolvulus. An excerpt:
The crop tested was Oilseed rape.
Additional treatments included applications of metazachlor (Butisan®, 43.1%) at 750 g ai/ha, napropamide (Devrinol DF®, 50%) at 1260 g, and dimethachlor (Teridox®, 48%) at 1000 g. […] Treatments were applied just after the planting of tall morningglory, wild mustard, common lambsquarters, Italian ryegrass, wild buckwheat, redroot pigweed, common chickweed, corn poppy, and oilseed rape.
Flats were watered and fertilized routinely after treatment application. Each treatment was replicated three times.

Series [2] has as its system weeds; Sugarcane (var. CTC 20). As to the kind of experiment: Ex17 PRE greenhouse. It is filed as in vivo. Conditions: weed and rate in the words. As to the method: (§2) In this example a study was conducted to determine weed efficacy and sugarcane injury when 2,4 DC or isoxaflutole are applied either alone or tank-mix as preemergence against the weeds: Ivyleaf morningglory (Ipomoea hederacea, IPOHE), hairy beggartickss (Bidens pilosa, BIDPI), yellow nutsedge (Cyperus esculentus, CYPES), large crabgrass (Digitaria sanguinalis, DIGSA), and redroot pigweed (Amaranthus retroflexus, AMARE). The crop tested in this study was Sugarcane (var. CTC 20).
(§3) To determine weed efficacy and sugarcane selectivity, 2,4 DC (SC 36%) and isoxaflutole (Balance Flexx®, 20%) were applied PRE either alone or as tank-mix partners at rates mentioned below. 2,4 DC was applied at 500, 750, and 1000 g ai/ha while isoxaflutole was applied at 80, 100, and 120 g ai/ha. […] Treatments were applied PRE to sugarcane (var. CTC 20), ivyleaf morningglory, hairy beggarticks, yellow nutsedge, large crabgrass, and redroot pigweed. Weed species were planted in fiber flats (6″×10″) containing Pennington soil. Soil was watered before application and watered lightly after application. Flats were watered and fertilized routinely after treatment application.

In the next series the test system is Common cocklebur. The series can be described thus: Ex37 PRE 2,4-DC + atrazine, % control 28 DAT, Colby. It is filed as in vivo, Xanthium strumarium. An excerpt:
(§4) S-metolachlor (DUAL II MAGNUM®, 82.4%) at 525 g ai/h plus atrazine at 560 g ai/h was included as a standard for comparison. […] Thereafter flats were watered and fertilized routinely.

The next series has as its system Velvetleaf. Described as above. It is filed as in vivo, Abutilon theophrasti. Conditions: PRE.
Excerpt: as §4

The subject of the next series is weeds; Wheat and canola. The series can be described thus: Ex29 PRE greenhouse. It is filed as in vivo. Conditions: 28 DAT. An excerpt:
The tested weeds include Italian ryegrass (Lolium perenne. multiflorum, LOLMU), wild mustard (Sinapis arvensis, SINAR), annual bluegrass (Poa annua, POAAN), wild oat (Avena fatua, AVEFA), blackgrass (Alopecurus myosuroides, ALOMY), common lambsquarters (Chenopodium album, CHEAL), littleseed canarygrass (Phalaris minor, PHAMI), common chickweed (Stellaria media, STEME), corn poppy (Papaver rhoeas, PAPRH), redroot pigweed (Amaranthus retroflexus, AMARE), silky windgrass (Apera spica-venti, APSEV), wild buckwheat (Polygonum convolvulus, POLCO). The crops teased were Wheat and canola.
Treatments were applied before the emergence of Italian ryegrass, wild oat, wild buckwheat, blackgrass, littleseed canarygrass, common chickweed, common lambsquarters, corn poppy, silky windgrass, redroot pigweed, wild mustard, annual bluegrass, canola, and wheat. […] Flats were watered and fertilized routinely after treatment application.

For series [3], the system named is weeds. As to the kind of experiment: Ex13 PRE greenhouse. It is filed as in vivo. Conditions: 28 DAT, weed and rate in the words. An excerpt: (§5) Pyroxasulfone (KIH-485, 85%) at 74.3 g ai/ha, pendimethalin (Prowl 3.3EC, 37.4%) at 1200 g ai/ha, or a premix of chlorsulfuron plus metsulfuron-methyl (Report Extra, 75%) at 15.8 g ai/ha were applied as commercial standards. […] Treatments were replicated 3 times and flats were watered after planting before the treatment and lightly watered after treatment application. Thereafter flats were watered and fertilized routinely.

Series [4] has as its system weeds; Wheat, barley, and oil seed rape (OSR). As to the kind of experiment: Ex19 PRE greenhouse. It is filed as in vivo. Conditions: rate in the words. The source says:
In this study, the crops tested included Wheat, barley, and oil seed rape (OSR).
To determine weed efficacy and wheat, barley or OSR selectivity, 2,4 DC (CS 36.7%) and Diflufenican (CS 19.5%) were applied preemergence either alone or as tank-mix partners at the following rates. 2,4 DC was applied at 125, 170, 210 and 250 g ai/ha while Diflufenican was applied at 50, 75, and 100 g ai/ha. Pyroxasulfone (KIH-485, 85%) at 74.3 g ai/ha, pendimethalin (Prowl 3.3EC, 37.4%) at 1200 g ai/ha, or a premix of chlorsulfuron plus metsulfuron-methyl (Report Extra, 75%) at 15.8 g ai/ha were applied as commercial standards.
Herbicides included as standards for comparison were pyroxasulfone, pendimethalin, and a pre mix of chlorsulfuron plus metsulfuron methyl, all applied at labeled rates as indicated above. Treatments were replicated 3 times. […] Thereafter flats were watered and fertilized routinely.

Series [5] has as its system weeds. As to the kind of experiment: Ex10 PRE greenhouse. Format: in vivo. Conditions: 28 DAT, weed and rate in the words. An excerpt: Treatments 1-12 of 2,4-DC and aclonifen tank-mix combinations follow same rates listed above. […] Sulfentrazone (Spartan 4F® 39.6%) at 280 g ai/ha, pendimethalin (Prowl 3.3®EC, 37.4%) at 784 g ai/ha, or S-metolachlor (Dual II Magnum® 82.4%) at 1084 g ai/ha were applied as commercial standards. Treatments were replicated 3 times and flats were watered after planting but before the treatment and lightly watered after treatment application. Thereafter flats were watered and fertilized routinely. […] Shepherd's-purse was rated at 21 and 28 DAT only, due to delayed emergence.

Another series has as its system weeds; Wheat and Barley. The series can be described thus: Ex14 POST greenhouse. Format: in vivo. Conditions: 28 DAT, rate in the words. The source says: (§6) The study further assessed post crop safety on Wheat and Barley.
(§7) Nonionic surfactant at 0.5% (v/v) was included with commercial standards application. No adjuvant was applied with any other treatments. All plant species were direct seeded into 3″ plastic pots using metro-mix as growth media. At treatment application common lambsquarters was 1.75″, common chickweed was 2″, wild mustard was 2.25″, wild oat was 5.5″, wild buckwheat was 2-5″, Italian ryegrass was 2-3″, wheat was 5.5″, and barley was 4.5″ in height. Plants were watered well before application and not watered 24 h after application. Plants were watered and fertilized routinely after treatment application. Each treatment was replicated four times.

A further series deals with common chickweed. As to the kind of experiment: Ex14 POST 2,4-DC + bromoxynil, % control 28 DAT, Colby. Format: in vivo, Stellaria media.
Excerpt: as §6, §7

Another series has as its system Wild mustard. As to the kind of experiment: Ex13 PRE 2,4-DC + diflufenican, % control 28 DAT, Colby. It is filed as in vivo, Sinapis arvensis.
Excerpt: as §5

The next series concerns Common lambsquarters. The series is described as above. Format: in vivo, Chenopodium album.
Excerpt: as §5

In the next series the test system is Blackgrass. The description is as above. It is filed as in vivo, Alopecurus myosuroides.
Excerpt: as §5

The subject of another series is Ivyleaf morningglory. The series can be described thus: Ex17 PRE 2,4 DC + isoxaflutole, % control 28 DAT, Colby. Format: in vivo, Ipomoea hederacea. The procedure: as §2
as §3, with “Weed species were planted in fiber flats (6″×10″) containing Pennington soil.” left out

Another series deals with weeds; Sugarcane (CTC20). As to the kind of experiment: Ex23 PRE greenhouse. Conditions: 28 DAT, 85 g ai/ha. The procedure: (Ipomoea spp). The tested crop in this study was Sugarcane (CTC20).
Sugarcane was direct seeded into 6″ plastic pots using 3-4″ sugarcane setts, oriented bud up, with bud leaf shield removed. 2,4 DC and sulfentrazone were applied alone or combined as tank-mix at each rate mentioned below. […] Treatments were replicated 3 times. […] Thereafter flats were watered and fertilized routinely. […] Visual percent sugarcane injury was recorded at 21 and 28 DAT, using a scale of 0 (no injury, observed as bleaching, stunting or necrosis) to 100 (complete plant death).

Regarding `CC1(C)CON(Cc2ccccc2Cl)C1=O` [Clomazone, clomazone, reference compound], the “weed control in words” value in the series on weeds [1] is “controlled goosegrass at all rates and cheat at 120 g”; in [2], “at 1120 g controlled hairy beggarticks, large crabgrass, and redroot pigweed”. The Y with Cheat (clomazone alone 60 g ai/ha) was 40%; in the series with Cheat (clomazone alone 90 g ai/ha), 75%; in the series with Cheat (clomazone alone 120 g ai/ha) it was 97%; in the series on Wild buckwheat (clomazone alone 60 g ai/ha), 70%; in the series on Wild buckwheat (clomazone alone 90 g ai/ha), 80%; in the series on Wild buckwheat (clomazone alone 120 g ai/ha), 79%.
As for `CCNc1nc(Cl)nc(NC(C)C)n1` [Atrazine], the Y in the series with Common cocklebur (Atrazine alone 140 g ai/ha) was 57%; in the series on Common cocklebur (Atrazine alone 280 g ai/ha), 92%; in the series with Common cocklebur (Atrazine alone 560 g ai/ha) it was 97%. Further, the “Y (% control, atrazine alone)” value in the series with Velvetleaf (atrazine 140 g ai/ha) worked out at 53%; in the series on Velvetleaf (atrazine 280 g ai/ha) it was 63%; with Velvetleaf (atrazine 560 g ai/ha) it was 96%.
In the case of `COCCN(C(=O)CCl)c1c(C)cccc1C` [Dimethachlor, dimethachlor], the “weed control in words” value in the series on weeds [1] is “controlled annual bluegrass, quackgrass, littleseed canarygrass, silky windgrass, yellow foxtail, and goosegrass”. Also, the injury to canola with weeds; Wheat and canola (at 100 g) was 18%. Moreover, the “weed control / crop safety in words” value in the series with weeds; Wheat and canola (weed, crop, rate in the words) was “alone provided control of lambsquarters at 1000 g ai/ha”.
With `CCC(CC)Nc1c([N+](=O)[O-])cc(C)c(C)c1[N+](=O)[O-]` [Pendimethalin, pendimethalin], the “weed control in words” value is on record as “at 1200 g gave control of 6 out of 10 weeds” with weeds [3] and “at 784 g gave control of 5 out of 10 weeds” in the series on weeds [5]. In addition, in series [4], the “weed control / crop safety in words” value was “controlled corn poppy and field violet and was safe on barley”.
In the case of `N#Cc1cc(Br)c(O)c(Br)c1` [Bromoxynil, bromoxynil, reference compound], the “weed control / crop safety in words” value in the series on weeds; Wheat and Barley was “alone controlled wild buckwheat, wild mustard, and common lambsquarters at all rates and was safe on both crops at all rates”. The Y in the series with common chickweed (bromoxynil alone 140 g ai/ha) was determined as 35%; with common chickweed (bromoxynil alone 210 g ai/ha), 65%; in the series on common chickweed (bromoxynil alone 280 g ai/ha), 38%.
As for `Nc1c([N+](=O)[O-])ccc(Oc2ccccc2)c1Cl` [Aclonifen, aclonifen], the “weed control in words” value in the series with weeds [5] is “alone at all three rates controlled common lambsquarters, quackgrass, redroot pigweed, littleseed canarygrass, annual bluegrass, blackgrass, and shepherd's purse”.
Take `O=C(Nc1ccc(F)cc1F)c1cccnc1Oc1cccc(C(F)(F)F)c1` [Diflufenican, diflufenican, reference compound]: the Y in the series with Wild mustard (diflufenican alone 50 g ai/ha) is reported as 42%; in the series with Wild mustard (diflufenican alone 75 g ai/ha) it was 89%; with Wild mustard (diflufenican alone 100 g ai/ha), 100%; in the series on Common lambsquarters (diflufenican alone 50 g ai/ha), 65%; in the series with Common lambsquarters (diflufenican alone 75 g ai/ha), 73%; with Common lambsquarters (diflufenican alone 100 g ai/ha), 85%. Besides, the Y in the series on Blackgrass (diflufenican alone 50 g ai/ha) was found to be 33%; in the series with Blackgrass (diflufenican alone 75 g ai/ha), 17%; in the series with Blackgrass (diflufenican alone 100 g ai/ha), 27%. The “weed control in words” value in the series on weeds [3] is listed as “controlled common lambsquarters at 100 g only”.
With `CS(=O)(=O)c1cc(C(F)(F)F)ccc1C(=O)c1cnoc1C1CC1` [Isoxaflutole, isoxaflutole, reference compound], the Y came out at 69% in the series on Ivyleaf morningglory (isoxaflutole alone 80 g ai/ha), 73% in the series on Ivyleaf morningglory (isoxaflutole alone 100 g ai/ha) and 81% in the series with Ivyleaf morningglory (isoxaflutole alone 120 g ai/ha). In the series on weeds; Sugarcane (CTC20), the sugarcane injury amounted to 12%. The “weed control in words” value in series [2] was “alone at 80 g or higher rates controlled hairy beggarticks, large crabgrass, and redroot pigweed”.

These data come from patent US12616203B2, “Use of 3-isoxazolidinones compounds as selective herbicides” (FMC Corporation, priority 2014, dated 2026).
